Measurements as given in ChEMBL document CHEMBL1201862, “PubChem BioAssay data set” (2004).
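Method: 48-hour compound exposure of cells in 96-well plates, five concentrations, linear interpolation of endpoints. Abbreviation: GI50, concentration required for 50% inhibition of growth.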 Calls of active or inactive are those of the source. Cut-off read from the data, not from the text of the source: active = GI50 up to about 1.1 µM and inactive = higher.

Legend:
Test in all cases: NCI anticancer screen, dose series, 48 h
[1] = test system: DU-145
[2] = test system: Hs-578T
[3] = test system: MDA-MB-231
[4] = test system: MDA-N
[5] = test system: PC-3
[6] = test system: T47D
[7] = test system: LXFL 529
[8] = test system: RXF 631

SMILES: c1ccc(/N=C2\S/C(=N\C3CCCCC3)N(C3CCCCC3)\C2=N/c2ccccc2)cc1
- GI50 [1]: > 100 µM (inactive)
- GI50 [2]: > 100 µM (inactive)
- GI50 [3]: > 100 µM (inactive)
- GI50 [4]: > 100 µM (inactive)
- GI50 [5]: 67.1 µM (inactive)
- GI50 [6]: > 100 µM (inactive)

SMILES: CC1OC2=N[C@@H]1C(=O)N[C@@H](Cc1ccccc1)C1=N[C@H](C(=O)N[C@@H](Cc3ccccc3)C3=N[C@H](C(=O)N[C@H]2Cc2ccccc2)C(C)O3)C(C)O1 (some centres not stated)
- GI50 [1]: 57.9 µM (inactive)
- GI50 [2]: 24.3 µM (inactive)
- GI50 [3]: 33 µM (inactive)
- GI50 [4]: 43.2 µM (inactive)
- GI50 [5]: 22.4 µM (inactive)
- GI50 [6]: 31.1 µM (inactive)

SMILES: COc1ccc(C2C(Cl)C(=O)N2NC(=O)c2ccccc2O)cc1 (configuration not stated)
- GI50 [7]: > 100 µM (inactive)

SMILES: Cn1ccnc1C(O)(c1nccn1C)c1nccn1C
- GI50 [7]: > 100 µM (inactive)

SMILES: CC1(C)COC(/C=C/C2=NC(C)(C)CO2)=N1
- GI50 [1]: 13 µM (inactive)
- GI50 [2]: < 0.01 µM (active)
- GI50 [3]: 19.7 µM (inactive)
- GI50 [4]: 20.1 µM (inactive)
- GI50 [5]: 17.5 µM (inactive)
- GI50 [6]: 8.75 µM (inactive)

SMILES: COC(=O)C1CCC(=O)N1C(=O)Cc1ccc(OC)cc1 (configuration not stated)
- GI50 [7]: > 100 µM (inactive)

SMILES: CC1(C)C(=O)c2ccccc2OC1N1CCN(C2Oc3ccccc3C(=O)C2(C)C)CC1 (configuration not stated)
- GI50 [1]: > 100 µM (inactive)
- GI50 [2]: 61.1 µM (inactive)
- GI50 [3]: 94.6 µM (inactive)
- GI50 [4]: > 100 µM (inactive)
- GI50 [5]: > 100 µM (inactive)
- GI50 [6]: 83.4 µM (inactive)

SMILES: COc1ccc(C(=O)Cc2ccc(Cl)cc2)cc1OC
- GI50 [7]: > 100 µM (inactive)
- GI50 [8]: > 100 µM (inactive)

SMILES: CC(=O)NNc1nc(C)c(C(=O)NNC(=O)C(=O)Nc2cccc(C(C)=O)c2)s1
- GI50 [8]: 26.6 µM (inactive)

SMILES: COc1cc(C2c3cc4c(cc3OC3(O)COC(=O)C23)OCO4)cc(OC)c1OC (configuration not stated)
- GI50 [7]: 39.8 µM (inactive)
- GI50 [8]: 49.3 µM (inactive)

SMILES: COC(=O)c1c(O)ccc2c1c1c(n2Cc2cccc(C)c2)C(=O)c2ccccc2C1
- GI50 [1]: 51.4 µM (inactive)
- GI50 [2]: 23.2 µM (inactive)
- GI50 [3]: 13.6 µM (inactive)
- GI50 [5]: 9.1 µM (inactive)
- GI50 [6]: 0.348 µM (active)
